Here are results for 4 compounds from patent US7262204B2, “Modulation of CCR4 function” (Amgen Inc., priority 2000, dated 2007).

pIC50: −log10 of the molar value.

What is called pIC50 is the IC50 on a negative log10 scale, so that one unit is a factor of ten. Low readings indicate a large IC50, high ones a small IC50.

The assay has as its target T1, CCR4 (Homo sapiens, UniProt P51679).
T1 construct: host or cells: CEM cells
T1 sequence (P51679 1-360): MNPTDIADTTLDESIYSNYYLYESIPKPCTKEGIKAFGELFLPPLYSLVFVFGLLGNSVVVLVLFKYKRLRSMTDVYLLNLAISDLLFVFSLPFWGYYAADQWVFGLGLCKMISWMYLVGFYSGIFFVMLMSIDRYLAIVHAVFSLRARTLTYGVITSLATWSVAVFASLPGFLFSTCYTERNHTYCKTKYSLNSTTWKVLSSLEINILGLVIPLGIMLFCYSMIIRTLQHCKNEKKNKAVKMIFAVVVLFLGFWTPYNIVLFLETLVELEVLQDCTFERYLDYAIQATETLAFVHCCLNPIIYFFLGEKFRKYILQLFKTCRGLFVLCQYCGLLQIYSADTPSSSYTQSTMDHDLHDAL
Briefly: CCR4 binding assay (inhibition of 125I-TARC binding to cells expressing CCR4). As to conditions: CCR4 antagonist activity. The text has this: This example illustrates a CCR4 binding assay that can be used for evaluating the compounds of the present invention.
Detection of Radiolabelled TARC and/or MDC Binding to CCR4
^125I-labelled TARC and MDC are available from commercial sources (e.g., Amersham-Pharmacia or Perkin Elmer Life Sciences). All buffers and materials are available from commercial sources (e.g., Gibco BRL, Sigma). To measure binding of ^125I-TARC or ^125I-MDC to cells expressing CCR4 (e.g., CEM cells, available from the ATCC), the ^125I-TARC or ^125I-MDC is diluted to a concentration of approximately 200 pM in a buffered saline solution (e.g., RPMI supplemented with 0.5% bovine serum albumin), and added to an equal volume of a suspension of cells (e.g., CEM cells at 5×10^6 cells/mL). The resulting mixture is incubated for a period of time (e.g., 2 hours). The unbound ^125I-TARC or ^125I-MDC is separated from the cells by filtration, e.g., by passage through GF/B filter plate (Packard Biosciences) pre-treated with 0.3% polyethyleneimine (Sigma), using a Packard Filtermate 96 (Packard Biosciences). The amount of ^125I-TARC or ^125I-MDC retained with the cells on the filterplate is measured by adding a small amount of scintillation fluid (e.g., 50 μL of Microscint-20, obtained from Packard Biosciences), and reading scintillation on appropriate detection equipment, e.g., a Packard TopCount 383 (Packard Biosciences).
Non-specific binding of ^125I-TARC or ^125I-MDC can be estimated by measuring the amount of ^125I-TARC or ^125I-MDC retained with the cells on the filterplate when the assay is performed in the presence of a large excess of unlabelled TARC or MDC.
Inhibition of ^125I-TARC or ^125I-MDC binding to CCR4 is defined as a decrease in the retention of ^125I-TARC or ^125I-MDC to the cells on the filterplate.
The assay described above varies only moderately from standardly used procedures, e.g., Imai et al. (1997) J. Biol. Chem. 272:15036-15042, Imai et al. (1998) J. Biol. Chem. 273:1764-1768.
Take `CC(C)CN(CC(C)C)C(C)c1csc(Nc2cccc3ccccc23)n1` (stereo not shown) [Compound 18]: the pIC50 was less than 6.00.

`CC(C)CN(Cc1csc(Nc2cccc3ccccc23)n1)CC(C)C` [Compound 15] had a pIC50 of less than 6.00.

`Clc1ccc2nc(Nc3cccc4ccccc34)sc2c1` [Compound 19] showed a pIC50 greater than 6.00.

In turn, `c1ccc(CN2CCc3sc(Nc4cccc5ccccc45)nc3C2)cc1` [Compound 20] had a pIC50 of less than 6.00.
